pEC50: −log10 of the molar value.
Assays:
[1] = system: HCT-116 cells; test: AlamarBlue cell viability assay, HCT-116 colon cancer cells; type: cell-based, human; conditions: for Average Selectivity Index: CC50 non-cancer cells (FHC, FHs 74Int) compared to EC50 HCT-116; for pEC50: Homo sapiens, HCT-116, 48 h, AlamarBlue, 48 h with compound, read-out: Human Cell Viability EC50 Colon Cancer (HCT 116)
[2] = system: DLD-1 cells; test: AlamarBlue cell viability assay, DLD-1 colon cancer cells; type: cell-based; conditions: Homo sapiens, 48 h with compound, ^BP = curve baseline plateaued between ~10-20%, read-out: Human Cell Viability EC50 Colon Cancer (DLD1)
[3] = system: HT-29 cells; test: AlamarBlue cell viability assay, HT-29 colon cancer cells; type: cell-based; conditions: Homo sapiens, 48 h with compound, ^BP = curve baseline plateaued between ~10-20%
[4] = AlamarBlue cell viability assay, non-cancerous colon FHC cells; conditions: human, FHC non-cancerous colon cells, Human Cell Viability CC50 Colon (FHC), non-cancerous colon cells, AlamarBlue, 48 h
[5] = AlamarBlue cell viability assay, non-cancerous intestine FHs-74Int cells; conditions: human, FHs-74Int non-cancerous intestine cells, Human Cell Viability CC50 Intestine (FHs 74Int), non-cancerous intestine cells, AlamarBlue, 48 h

CC1CS(=O)(=O)CCN1/N=C/c1ccc(O)c2ncccc12 (stereo not shown) [Compound 134]
Average Selectivity Index [1]: 13 | pEC50 [1]: 5.15 | pEC50 [2]: 5.20 | pEC50 [3]: 5.09 | CC50 at 48 h [4]: > 100 µM | CC50 at 48 h [5]: 87 µM

O=C(N/N=C/c1ccc(O)c2ncccc12)c1cccs1 [Compound 135]
Average Selectivity Index [1]: 27 | pEC50 [1]: 5.49 | pEC50 [2]: 5.64 | pEC50 [3]: 5.44 | CC50 at 48 h [4]: 85 µM | CC50 at 48 h [5]: 86 µM

O=C(N/N=C/c1ccc(O)c2ncccc12)c1ccc(Cl)s1 [Compound 136]
Average Selectivity Index [1]: 8.8 | pEC50 [1]: 5.42 | pEC50 [2]: 5.41 | pEC50 [3]: 5.49 | CC50 at 48 h [4]: 25 µM | CC50 at 48 h [5]: 42 µM

O=C(N/N=C/c1ccc(O)c2ncccc12)c1ccccc1 [Compound 137]
Average Selectivity Index [1]: 11 | pEC50 [1]: 5.21 | pEC50 [2]: 5.55 | pEC50 [3]: 5.60 | CC50 at 48 h [4]: 74 µM | CC50 at 48 h [5]: 57 µM

O=C(N/N=C/c1ccc(O)c2ncccc12)c1ccncc1 [Compound 138]
Average Selectivity Index [1]: 1.8 | pEC50 [1]: 4.32 | CC50 at 48 h [4]: > 100 µM | CC50 at 48 h [5]: 69 µM

CN(C)c1ccc(C(=O)N/N=C/c2ccc(O)c3ncccc23)cc1 [Compound 140]
Average Selectivity Index [1]: 8.8 | pEC50 [1]: 5.36 | pEC50 [3]: 5.62 | CC50 at 48 h [4]: 35 µM | CC50 at 48 h [5]: 42 µM

O=C(N/N=C/c1ccc(O)c2ncccc12)c1cccc2ccccc12 [Compound 141]
Average Selectivity Index [1]: 13 | pEC50 [1]: 5.39 | pEC50 [2]: 5.80 | pEC50 [3]: 5.82 | CC50 at 48 h [4]: 46 µM | CC50 at 48 h [5]: 60 µM

O=C(N/N=C/c1ccc(O)c2ncccc12)c1ccccc1Oc1ccccc1 [Compound 142]
Average Selectivity Index [1]: 13 | pEC50 [1]: 5.20 | pEC50 [2]: 5.80 | pEC50 [3]: 5.43 | CC50 at 48 h [4]: 71 µM | CC50 at 48 h [5]: 87 µM

CCN(CC)S(=O)(=O)c1cccc(C(=O)N/N=C/c2ccc(O)c3ncccc23)c1 [Compound 144]
Average Selectivity Index [1]: 9.5 | pEC50 [1]: 5.31 | pEC50 [2]: 5.89 | pEC50 [3]: 5.36 | CC50 at 48 h [4]: 34 µM | CC50 at 48 h [5]: 59 µM

O=C(N/N=C/c1ccc(O)c2ncccc12)c1ccc(NS(=O)(=O)c2cccs2)cc1 [Compound 145]
Average Selectivity Index [1]: 6.2 | pEC50 [1]: 5.62 | pEC50 [2]: 5.24 | pEC50 [3]: 5.54 | CC50 at 48 h [4]: 24 µM | CC50 at 48 h [5]: 6.1 µM

O=C(N/N=C/c1ccc(O)c2ncccc12)c1ccc(NS(=O)(=O)c2ccc(Br)cc2)cc1 [Compound 146]
Average Selectivity Index [1]: 14 | pEC50 [1]: 5.28 | pEC50 [2]: 5.22 | pEC50 [3]: 5.85 | CC50 at 48 h [4]: 59 µM | CC50 at 48 h [5]: 91 µM

COc1ccc(C(=O)N/N=C/c2ccco2)cc1 [Compound 158]
Average Selectivity Index [1]: 1.0 | pEC50 [1]: < 4.00 | CC50 at 48 h [4]: > 100 µM | CC50 at 48 h [5]: > 100 µM

O=Cc1ccc(O)c2ncccc12 [Compound 159]
Average Selectivity Index [1]: 1.6 | pEC50 [1]: 5.21 | CC50 at 48 h [4]: 4.4 µM | CC50 at 48 h [5]: 15 µM

O=Cc1ccc([N+](=O)[O-])o1 [Compound 160]
Average Selectivity Index [1]: 1.9 | pEC50 [1]: 4.54 | CC50 at 48 h [4]: 53 µM | CC50 at 48 h [5]: 53 µM

COc1ccc(C(=O)NN)cc1 [Compound 161]
Average Selectivity Index [1]: 1.0 | pEC50 [1]: < 4.00 | CC50 at 48 h [4]: > 100 µM | CC50 at 48 h [5]: > 100 µM

O=C(N/N=C/c1ccc([N+](=O)[O-])o1)c1ccc(O)cc1 [Nifuroxazide (Nfz), Nifuroxazide, reference compound]
Average Selectivity Index [1]: 7.7 | pEC50 [1]: 5.08 | pEC50 [2]: 5.82 | pEC50 [3]: 5.46 | CC50 at 48 h [4]: 66 µM | CC50 at 48 h [5]: 62 µM

CC1CS(=O)(=O)CCN1/N=C/c1ccc([N+](=O)[O-])o1 (stereo not shown) [Nifurtimox (Nfx - 106), Nifurtimox, reference compound]
Average Selectivity Index [1]: 1.0 | pEC50 [1]: < 4.00 | CC50 at 48 h [4]: > 100 µM | CC50 at 48 h [5]: > 100 µM

O=C1CN(/N=C/c2ccc([N+](=O)[O-])o2)C(=O)N1 [Nitrofurantoin (Nft), Nitrofurantoin, reference compound]
Average Selectivity Index [1]: 1.1 | pEC50 [1]: 4.02 | CC50 at 48 h [4]: > 100 µM | CC50 at 48 h [5]: > 100 µM

O=[N+]([O-])c1ccc(O)c2ncccc12 [Nitroxoline, reference compound]
Average Selectivity Index [1]: 1.6 | pEC50 [1]: 4.66 | CC50 at 48 h [4]: 28 µM | CC50 at 48 h [5]: 41 µM

Source: patent US20250319056A1, “METHODS FOR TREATING CANCER” (THE TRUSTEES OF INDIANA UNIVERSITY, priority 2024, published 2025)
